Results from patent US10457659B2, “Compositions and methods for increasing proliferation of adult salivary stem cells” (The Board of Trustees of the Leland Stanford Junior …, priority 2011, dated 2019).
“Also recorded” adds a separate entry of the source.

Key:
[1] = biological target: T1, human ALDH3 recombinant enzyme (Homo sapiens, UniProt P30838); test: Catalytic activity of recombinant ALDH3 enzyme (isozyme selectivity, FIG. 3A); assay type: biochemical; conditions: n=3, p<0.01
T1 sequence (P30838 1-453): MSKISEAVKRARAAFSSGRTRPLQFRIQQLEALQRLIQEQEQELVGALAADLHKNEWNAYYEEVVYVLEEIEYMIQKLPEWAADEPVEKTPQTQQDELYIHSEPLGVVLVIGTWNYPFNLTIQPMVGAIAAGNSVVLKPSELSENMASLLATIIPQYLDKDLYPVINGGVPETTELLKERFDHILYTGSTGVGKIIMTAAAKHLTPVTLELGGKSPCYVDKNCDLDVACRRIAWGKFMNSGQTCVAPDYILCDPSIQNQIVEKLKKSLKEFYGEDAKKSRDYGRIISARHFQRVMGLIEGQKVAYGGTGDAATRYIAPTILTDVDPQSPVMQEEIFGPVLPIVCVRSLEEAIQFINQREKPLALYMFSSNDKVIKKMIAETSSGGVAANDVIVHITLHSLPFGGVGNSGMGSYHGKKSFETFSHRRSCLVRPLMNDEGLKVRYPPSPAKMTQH
Procedure: (§1) As an example of an assay for dehydrogenase activity, ALDH aldehyde dehydrogenase activity is assayed at 25° C. in 50 mM sodium pyrophosphate HCl buffer, pH 9.0, 100 mM sodium phosphate buffer, pH 7.4, or 50 mM sodium phosphate buffer, pH 7.4, where the buffer includes NAD^+ (e.g., 0.8 mM NAD^+, or higher, e.g., 1 mM, 2 mM, or 5 mM NAD^+) and an aldehyde substrate such as 14 μM propionaldehyde. Reduction of NAD^+ is monitored at 340 nm using a spectrophotometer, or by fluorescence increase using a fluoromicrophotometer Enzymatic activity can be assayed using a standard spectrophotometric method, e.g., by measuring a reductive reaction of the oxidized form of nicotinamide adenine dinucleotide (NAD^+) to its reduced form, NADH, at 340 nm, as described in US 2005/0171043; and WO 2005/057213, and as depicted schematically in FIG. 4. In an exemplary assay, the reaction is carried out at 25° C. in […] pyrophosphate (NaPPi) buffer, pH 9.0, 2.4 mM NAD^+ and 10 mM acetaldehyde as the substrate. Enzymatic activity is measured by a reductive reaction of NAD^+ to NADH at 340 nm, as described in US 2005/0171043; and WO 2005/057213. Alternatively, the production of NADH can be coupled with another enzymatic reaction that consumes NADH and that provides for a detectable signal. […]

ALDH1 = biological target: T2, ALDH1 (Homo sapiens, UniProt P00352); test: Catalytic activity of ALDH1 isozyme (isozyme selectivity, FIG. 3A); assay type: biochemical
T2 sequence (P00352 1-501): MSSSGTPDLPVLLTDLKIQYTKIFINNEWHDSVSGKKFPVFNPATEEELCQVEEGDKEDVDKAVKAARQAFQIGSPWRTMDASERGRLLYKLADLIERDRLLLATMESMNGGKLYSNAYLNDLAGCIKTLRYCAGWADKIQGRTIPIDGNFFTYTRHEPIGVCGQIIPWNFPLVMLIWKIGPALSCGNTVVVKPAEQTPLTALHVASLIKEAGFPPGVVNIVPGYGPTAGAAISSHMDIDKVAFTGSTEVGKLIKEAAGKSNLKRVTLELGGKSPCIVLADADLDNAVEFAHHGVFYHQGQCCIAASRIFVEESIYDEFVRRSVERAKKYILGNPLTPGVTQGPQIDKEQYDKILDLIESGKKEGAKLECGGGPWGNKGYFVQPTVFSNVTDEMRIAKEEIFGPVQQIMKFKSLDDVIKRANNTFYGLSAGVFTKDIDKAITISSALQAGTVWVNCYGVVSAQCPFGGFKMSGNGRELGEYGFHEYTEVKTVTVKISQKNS
Procedure: as §1

ALDH2 = biological target: T3, ALDH2 (Homo sapiens, UniProt P05091); test: Catalytic activity of ALDH2 isozyme (isozyme selectivity, FIG. 3A); assay type: biochemical
T3 sequence (P05091 18-517): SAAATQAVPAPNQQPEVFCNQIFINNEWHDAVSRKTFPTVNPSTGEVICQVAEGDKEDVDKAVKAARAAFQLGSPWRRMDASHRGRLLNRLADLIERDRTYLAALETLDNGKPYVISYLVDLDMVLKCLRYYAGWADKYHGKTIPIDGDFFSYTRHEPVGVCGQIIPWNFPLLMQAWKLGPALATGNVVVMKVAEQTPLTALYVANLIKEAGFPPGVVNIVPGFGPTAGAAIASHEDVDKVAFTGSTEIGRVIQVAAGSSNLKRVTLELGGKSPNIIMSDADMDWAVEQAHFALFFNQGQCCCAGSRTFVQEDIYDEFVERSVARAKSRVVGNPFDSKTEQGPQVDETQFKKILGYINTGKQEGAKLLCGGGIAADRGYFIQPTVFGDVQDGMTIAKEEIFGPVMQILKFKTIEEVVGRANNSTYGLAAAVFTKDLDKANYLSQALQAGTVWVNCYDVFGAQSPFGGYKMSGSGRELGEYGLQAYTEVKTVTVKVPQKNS
Procedure: as §1

ALDH5 = test: Catalytic activity of ALDH5 isozyme (isozyme selectivity, FIG. 3A); assay type: biochemical
Procedure: as §1

ALDH3 = biological target: T4, ALDH3 (Mus musculus, UniProt P47739); test: ALDH3 enzyme activity in esophagus cell homogenate after osmotic pump infusion into mice (FIG. 3B); assay type: in vivo; conditions: 34 mg/kg/day, n=5, p<0.05
T4 construct: enhanced ALDH3 enzyme activity by 29% in esophagus cell homogenate; from tissue; host or cells: esophagus cell homogenate of C57BL/6 mice
T4 sequence (P47739 1-453): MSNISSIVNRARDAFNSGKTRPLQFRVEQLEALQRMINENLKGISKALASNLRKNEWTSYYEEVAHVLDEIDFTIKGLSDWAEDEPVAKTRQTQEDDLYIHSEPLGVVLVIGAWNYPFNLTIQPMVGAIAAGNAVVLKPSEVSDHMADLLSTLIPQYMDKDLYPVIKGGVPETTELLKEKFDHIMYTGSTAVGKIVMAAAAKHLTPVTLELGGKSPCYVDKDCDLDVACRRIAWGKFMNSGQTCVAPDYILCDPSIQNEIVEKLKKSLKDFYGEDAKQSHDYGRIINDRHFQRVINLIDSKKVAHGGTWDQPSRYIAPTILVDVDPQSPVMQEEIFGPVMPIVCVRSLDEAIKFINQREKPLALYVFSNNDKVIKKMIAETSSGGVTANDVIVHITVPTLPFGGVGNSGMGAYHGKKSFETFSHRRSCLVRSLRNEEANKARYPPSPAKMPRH

c-kit+/CD90+ SMG cells = test: FACS count of c-Kit+/CD90+ submandibular gland cells after 7 days of infusion in mice (FIG. 3C); assay type: in vivo, mouse
Procedure: All animal procedures were approved by the Institutional Animal Care and Use Committee at Stanford University. Female C57BL/6 mice (n=10, 4-5 weeks old, Jackson Laboratory, Sacramento, Calif.) were used for ALDH3 activator study.
(§2) An ALDH3 activator (Alda89, 100 ug/ml, n=5) and Vehicle control ([…]; 50% DMSO and 50% PEG400, n=5) was injected into ALZET osmotic pumps (DURECT Corporation, Cupertino, Calif.). The osmotic pumps were implanted subcutaneously into C57BL/6 mice. The mice were euthanized after 7 days and salivary gland tissues were collected for analysis of salsiphere formation and BrdU incorporation as described above. In addition, FACs analysis for anti-mouse c-Kit and anti-mouse CD90 (BD Biosciences, San Jose, Calif.) cell population was also performed in pooled SMG samples.

SMG salispheres = test: Salisphere formation and BrdU incorporation of unselected SMG cells from treated mice (FIG. 3D); assay type: in vivo, mouse
Procedure: After 3 days of culture, cells were stained with Brdu staining kit according to the manufacturer's instructions (Invitrogen, Carlsbdad, Calif.). The total number of salispheres and BrdU positive salispheres per 96 well were counted under light microscopy. For each group 20 wells were counted and experiments were repeated 3 times.
as §2

**Q.** With `C=CCc1ccc2c(c1)OCO2` [Alda-89, 5-(2-propenyl)-1,3-benzodioxole] as the compound, how does the “catalytic activity of human ALDH3 recombinant enzyme” value [1] read?
**A.** 304.4±7.1 % of control

**Q.** What about the “effect on ALDH1 isozyme catalytic activity” value (ALDH1) of the same compound?
**A.** no effect

**Q.** And the “effect on ALDH2 isozyme catalytic activity” value (ALDH2)?
**A.** no effect

**Q.** And the “effect on ALDH5 isozyme catalytic activity” value (ALDH5)?
**A.** no effect

**Q.** What about the “enhancement of ALDH3 enzyme activity in esophagus cell homogenate vs vehicle control” value (ALDH3) of the same compound?
**A.** 29%

**Q.** And the “change in number of c-kit+/CD90+ SMG cells compared to vehicle control” value (c-kit+/CD90+ SMG cells; 7 days of treatment)?
**A.** more than doubling; also recorded: more than doubled

**Q.** What about the “number of c-kit+/CD90+ cells in SMG” value (c-kit+/CD90+ SMG cells; 7 days of treatment by subcutaneous osmotic pump, vehicle 7.37±0.45%, p<0.05) of the same compound?
**A.** 17.8±0.95%

**Q.** And the “change in BrdU+ salisphere number after treatment of adult mice” value (SMG salispheres; adult mice, summary statement)?
**A.** more than doubling

**Q.** And the “number of BrdU+ spheres” value (SMG salispheres; unselected SMG cells from mice treated 7 days, 3 days of culture, vehicle 66±1.42, p<0.05)?
**A.** 91±0.83 spheres/5000 cells

**Q.** What about the “total number of salispheres” value (SMG salispheres; unselected SMG cells from mice treated 7 days, 3 days of culture, vehicle 86±0.58, p<0.05) of the same compound?
**A.** 121±0.83 spheres/5000 cells
